Measurements: patent publication US8673894B2 (Hoffmann-La Roche Inc., priority 2010, dated 2014)
Where a name gives a salt, the structure may show the parent alone.

Experiments:
[1] = tested on: Aβ40; test: Cellular Aβ-lowering assay; assay type: cell-based; conditions: HEK293 cells stably expressing human APP695, Aβ40 in supernatant by ELISA after 18-20 hrs; read-out: Cellular assay Abeta40 IC50
Outline: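 HEK293 cells stably expressing human wild-type APP695 were treated with compound for 18-20 h at 37 °C in 0.8% v/v DMSO. Secreted Aβ40 in the supernatant was measured by sandwich ELISA (Aβ40 C-terminus-specific capture, HRP-4G8 detection, TMB read at 450 nm) and quantified against a pure Aβ peptide standard curve.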

[2] = molecular target: T1, endogenous cellular BACE2 (Rattus norvegicus, UniProt Q6IE75); test: Assay for BACE inhibition by measuring cellular TMEM27 cleavage; assay type: cell-based; conditions: INS-TMEM27 (INS1e-derived) cells, shed human TMEM27 in supernatant by ELISA
T1 construct: endogenous cellular BACE2 in the Ins1e rat cell line; endogenous in cells; host or cells: INS-TMEM27 (INS1e-derived rat insulinoma cell line with doxycycline-inducible full-length human TMEM27)
T1 sequence (Q6IE75 63-514): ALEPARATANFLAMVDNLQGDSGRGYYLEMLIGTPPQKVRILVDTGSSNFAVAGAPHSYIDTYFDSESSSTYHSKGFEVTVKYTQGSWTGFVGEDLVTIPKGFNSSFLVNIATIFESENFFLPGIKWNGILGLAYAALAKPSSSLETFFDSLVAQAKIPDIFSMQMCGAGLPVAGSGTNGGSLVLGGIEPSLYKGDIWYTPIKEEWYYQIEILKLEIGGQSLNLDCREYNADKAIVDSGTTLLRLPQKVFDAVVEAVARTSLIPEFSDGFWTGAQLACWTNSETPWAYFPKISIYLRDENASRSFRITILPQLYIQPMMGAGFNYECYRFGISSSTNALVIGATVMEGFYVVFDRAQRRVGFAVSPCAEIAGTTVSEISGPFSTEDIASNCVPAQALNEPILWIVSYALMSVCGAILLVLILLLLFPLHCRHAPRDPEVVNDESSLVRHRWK
Outline: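 INS1e rat cells with doxycycline-inducible human TMEM27 get inhibitor 2 h before doxycycline (500 ng/ml final), then 46 h further at 37° C. Shed TMEM27 in the supernatant is measured by sandwich ELISA, and the EC50 comes from a curve fit of the ELISA signal.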

SMILES	IC50 [1] [nM]	IC50 [2] [nM]
C[C@]1(c2cc(NC(=O)c3ccc(OCF)cn3)ccc2F)N=C(N)COCC1(F)F [Example 70, (R)-N-(3-(3-Amino-6,6-difluoro-5-methyl-2,5,6,7-tetrahydro-1,4-oxazepin-5-yl)-4-fluorophenyl)-5-(fluoromethoxy)picolinamide formate]	5.2	172
C[C@]1(c2cc(NC(=O)c3ncc(Cl)cc3Cl)ccc2F)N=C(N)COCC1(F)F [Example 39, (R)-N-(3-(3-amino-6,6-difluoro-5-methyl-2,5,6,7-tetrahydro-1,4-oxazepin-5-yl)-4-fluorophenyl)-3,5-dichloropicolinamide formate]	2.6	3
C[C@@]1(c2cc(NC(=O)c3ncc(Cl)cc3Cl)ccc2F)CCOCC(N)=N1 [Example 8, 3,5-Dichloro-pyridine-2-carboxylic acid [3-((S)-3-amino-5-methyl-2,5,6,7-tetrahydro-[1,4]oxazepin-5-yl)-4-fluoro-phenyl]-amide]	2.5	1.8
CC[C@]1(c2cc(NC(=O)c3ncc(F)cc3Cl)ccc2F)N=C(N)COCC1(F)F [Example 84, (R)-N-(3-(3-Amino-5-ethyl-6,6-difluoro-2,5,6,7-tetrahydro-1,4-oxazepin-5-yl)-4-fluorophenyl)-3-chloro-5-fluoropicolinamide]	130	60.2
CC1(C)OCC[C@@](C)(c2cc(NC(=O)c3ccc(Cl)cn3)ccc2F)N=C1N [Example 47, 5-Chloro-pyridine-2-carboxylic acid [3-((S)-3-amino-2,2,5-trimethyl-2,5,6,7-tetrahydro-[1,4]oxazepin-5-yl)-4-fluoro-phenyl]-amide]	58	46
C[C@]1(c2cc(NC(=O)c3ccc(OCC(F)(F)C(F)F)cn3)ccc2F)N=C(N)COCC1(F)F [Example 54, (R)-N-(3-(3-amino-6,6-difluoro-5-methyl-2,5,6,7-tetrahydro-1,4-oxazepin-5-yl)-4-fluorophenyl)-5-(2,2,3,3-tetrafluoropropoxy)picolinamide formate]	29	570
CC1(C)C[C@@](C)(c2cc(NC(=O)C3CC3(F)F)ccc2F)N=C(N)CO1 (stereo partly drawn) [Example 19, 2,2-Difluoro-cyclopropanecarboxylic acid [3-((S)-3-amino-5,7,7-trimethyl-2,5,6,7-tetrahydro-[1,4]oxazepin-5-yl)-4-fluoro-phenyl]-amide]	440	56
C[C@]1(c2cc(NC(=O)c3ncccc3C(F)(F)F)ccc2F)N=C(N)COCC1(F)F [Example 37, (R)-N-(3-(3-amino-6,6-difluoro-5-methyl-2,5,6,7-tetrahydro-1,4-oxazepin-5-yl)-4-fluorophenyl)-3-(trifluoromethyl)picolinamide formate]	54	25
COC(C)C(=O)Nc1ccc(F)c([C@@]2(C)N=C(N)COCC2(F)F)c1 (stereo partly drawn) [Example 55, N-(3-((R)-3-amino-6,6-difluoro-5-methyl-2,5,6,7-tetrahydro-1,4-oxazepin-5-yl)-4-fluorophenyl)-2-methoxypropanamide formate]	140	190
C[C@]1(c2cc(NC3CCCC3)ccc2F)N=C(N)COC[C@@H]1F [Example 65, (5R,6R)-5-(5-(cyclopentylamino)-2-fluorophenyl)-6-fluoro-5-methyl-2,5,6,7-tetrahydro-1,4-oxazepin-3-amine]	48	56
C[C@]1(c2cc(NC(=O)c3ncc(C#N)cc3Cl)ccc2F)N=C(N)COCC1(F)F [Example 56, (R)-N-(3-(3-amino-6,6-difluoro-5-methyl-2,5,6,7-tetrahydro-1,4-oxazepin-5-yl)-4-fluorophenyl)-3-chloro-5-cyanopicolinamide formate]	1.5	15.6
CC1(C)C[C@@](C)(c2cc(NC(=O)CC(F)(F)F)ccc2F)N=C(N)CO1 [Example 22, N-[3-((S)-3-Amino-5,7,7-trimethyl-2,5,6,7-tetrahydro-[1,4]oxazepin-5-yl)-4-fluoro-phenyl]-3,3,3-trifluoro-propionamide]	980	55
C[C@@]1(c2cc(NC(=O)c3ccc(C#N)cn3)ccc2F)COCCC(N)=N1 [Example 53, 5-Cyano-pyridine-2-carboxylic acid [3-((R)-5-amino-3-methyl-2,3,6,7-tetrahydro-[1,4]oxazepin-3-yl)-4-fluoro-phenyl]-amide]	10	41
C[C@@]1(c2cc(NC(=O)C3CC3(F)F)ccc2F)CCOCC(N)=N1 (stereo partly drawn) [Example 23, 2,2-Difluoro-cyclopropanecarboxylic acid [3-((S)-3-amino-5-methyl-2,5,6,7-tetrahydro-[1,4]oxazepin-5-yl)-4-fluoro-phenyl]-amide]	1640	140
C[C@]1(c2cc(NC(=O)c3ccc(OC(F)F)cn3)ccc2F)N=C(N)COCC1(F)F [Example 48, (R)-N-(3-(3-amino-6,6-difluoro-5-methyl-2,5,6,7-tetrahydro-1,4-oxazepin-5-yl)-4-fluorophenyl)-5-(difluoromethoxy)picolinamide formate]	1	88
CC[C@]1(c2cc(NC(=O)c3ncc(Cl)cc3Cl)ccc2F)N=C(N)COCC1(F)F [Example 83, (R)-N-(3-(3-Amino-5-ethyl-6,6-difluoro-2,5,6,7-tetrahydro-1,4-oxazepin-5-yl)-4-fluorophenyl)-3,5-dichloropicolinamide]	15	19.7
C[C@]1(c2cc(NC(=O)c3cc(Cl)c(Cl)s3)ccc2F)N=C(N)COCC1(F)F [Example 72, (R)-N-(3-(3-Amino-6,6-difluoro-5-methyl-2,5,6,7-tetrahydro-1,4-oxazepin-5-yl)-4-fluorophenyl)-4,5-dichlorothiophene-2-carboxamide formate,]	590	2440
C[C@]1(c2cc(NC(=O)C3(C(F)(F)F)CC3)ccc2F)N=C(N)COCC1(F)F [Example 33, (R)-N-(3-(3-amino-6,6-difluoro-5-methyl-2,5,6,7-tetrahydro-1,4-oxazepin-5-yl)-4-fluorophenyl)-1-(trifluoromethyl)cyclopropanecarboxamide formate]	90	240
